Assay results as given in US11970473B2, “Nootkatone derivatives and methods of using the same” (Arkansas State University—Jonesboro, priority 2021, dated 2024).
Values after ≈ are worked out from the molar mass of the structure shown.

Key:
SK-MEL-2 = experiment: NCI-60 cancer screen; type: cell-based, human; conditions: SK-MEL-2, Melanoma; 10 μM
A549/ATCC = experiment: NCI-60 cancer screen; type: cell-based, human; conditions: Non-Small Cell Lung Cancer, 10 μM
SNB-75 = experiment: NCI-60 cancer screen; type: cell-based, human; conditions: SNB-75, CNS Cancer; 10 μM
PC-3 = experiment: NCI-60 cancer screen; type: cell-based, human; conditions: PC-3, Prostate Cancer; 10 μM
HCT-15 = experiment: NCI-60 cancer screen; type: cell-based, human; conditions: HCT-15, Colon Cancer; 10 μM
KM12 = experiment: NCI-60 cancer screen; type: cell-based, human; conditions: KM12, Colon Cancer; 10 μM
U251 = experiment: NCI-60 cancer screen; type: cell-based, human; conditions: U251, CNS Cancer; 10 μM
SK-MEL-28 = experiment: NCI-60 cancer screen; type: cell-based, human; conditions: SK-MEL-28, Melanoma; 10 μM
CAKI-1 = experiment: NCI-60 cancer screen; type: cell-based, human; conditions: CAKI-1, Renal Cancer; 10 μM
UACC-257 = experiment: NCI-60 cancer screen; type: cell-based, human; conditions: UACC-257, Melanoma; 10 μM
UO-31 = experiment: NCI-60 cancer screen; type: cell-based, human; conditions: UO-31, Renal Cancer; 10 μM
SK-MEL-5 = experiment: NCI-60 cancer screen; type: cell-based, human; conditions: SK-MEL-5, Melanoma; 10 μM
OVCAR-8 = experiment: NCI-60 cancer screen; type: cell-based, human; conditions: OVCAR-8, Ovarian Cancer; 10 μM
S. aureus strains = experiment: MIC, summary over S. aureus strains; type: cell-based; conditions: Staphylococcus aureus; lowest MIC over S. aureus strains; read-out: minimum inhibitory concentration (MIC) value as low as
Method: (§1) Minimal inhibitory concentration (MIC) assay The standard microdilution method recommended by the Clinical and Laboratory Standards Institute (CLSI) was used to determine the MIC of the antibiotics. The starting concentration of compounds was 50 μg/ml and 2-fold dilution was done down the 96 honeycomb well plate column. The MIC assay was conducted in triplicates.

A498 = experiment: NCI-60 cancer screen; type: cell-based, human; conditions: A498, Renal Cancer; 10 μM
IGROV1 = experiment: NCI-60 cancer screen; type: cell-based, human; conditions: IGROV1, Ovarian Cancer; 10 μM
M14 = experiment: NCI-60 cancer screen; type: cell-based, human; conditions: M14, Melanoma; 10 μM
NCI-H522 = experiment: NCI-60 cancer screen; type: cell-based, human; conditions: NCI-H522, Non-Small Cell Lung Cancer; 10 μM
[1] = test system: S. aureus BAA-2312 (Sa12); experiment: Minimal inhibitory concentration (MIC) assay; type: cell-based; conditions: Staphylococcus aureus, BAA2312; S. aureus BAA-2312, antibiotic-resistant strain; read-out: Antimicrobial activity (MIC) Sa12
Method: as §1

[2] = test system: S. epidermidis 700296 (Se); experiment: Minimal inhibitory concentration (MIC) assay; type: cell-based; conditions: Staphylococcus epidermidis, S. epidermidis 700296; read-out: Antimicrobial activity (MIC) Se
Method: as §1

[3] = test system: Enterococcus faecium ATCC 700221 (Em21); experiment: Minimal inhibitory concentration (MIC) assay; type: cell-based
Method: as §1

[4] = test system: Enterococcus faecalis ATCC 29212 (Es12); experiment: Minimal inhibitory concentration (MIC) assay; type: cell-based; conditions: ATCC29212; Enterococcus faecalis ATCC 29212; read-out: Antimicrobial activity (MIC) Es12
Method: as §1

[5] = test system: S. aureus ATCC 33592 (Sa92); experiment: Minimal inhibitory concentration (MIC) assay; type: cell-based; conditions: Staphylococcus aureus, ATCC33592; S. aureus ATCC 33592, antibiotic-resistant strain; read-out: Antimicrobial activity (MIC) Sa92
Method: as §1

[6] = test system: S. aureus ATCC 700699 (Sa99); experiment: Minimal inhibitory concentration (MIC) assay; type: cell-based; conditions: Staphylococcus aureus, ATCC700699; S. aureus ATCC 700699, antibiotic-resistant strain; read-out: Antimicrobial activity (MIC) Sa99
Method: as §1

[7] = test system: B. subtilis ATCC 6623 (Bs); experiment: Minimal inhibitory concentration (MIC) assay; type: cell-based; conditions: Bacillus subtilis, ATCC6623; B. subtilis ATCC 6623; read-out: Antimicrobial activity (MIC) Bs
Method: as §1

[8] = test system: S. aureus ATCC 33591 (Sa91); experiment: Minimal inhibitory concentration (MIC) assay; type: cell-based; conditions: Staphylococcus aureus, ATCC33591; S. aureus ATCC 33591, antibiotic-resistant strain; read-out: Antimicrobial activity (MIC) Sa91
Method: as §1

SK-OV-3 = experiment: NCI-60 cancer screen; type: cell-based, human; conditions: SK-OV-3, Ovarian Cancer; 10 μM
HCT-116 = experiment: NCI-60 cancer screen; type: cell-based, human; conditions: HCT-116, Colon Cancer; 10 μM
BT-549 = experiment: NCI-60 cancer screen; type: cell-based, human; conditions: BT-549, Breast Cancer; 10 μM
SR = experiment: NCI-60 cancer screen; type: cell-based, human; conditions: Leukemia, 10 μM
SF-268 = experiment: NCI-60 cancer screen; type: cell-based, human; conditions: SF-268, CNS Cancer; 10 μM
HOP-62 = experiment: NCI-60 cancer screen; type: cell-based, human; conditions: HOP-62, Non-Small Cell Lung Cancer; 10 μM
OVCAR-5 = experiment: NCI-60 cancer screen; type: cell-based, human; conditions: OVCAR-5, Ovarian Cancer; 10 μM
MOLT-4 = experiment: NCI-60 cancer screen; type: cell-based, human; conditions: MOLT-4, Leukemia; 10 μM

In the case of `C=C(C)[C@@H]1CC=C2c3sc(-c4ccc(O)cc4)nc3C[C@@H](C)[C@]2(C)C1` [Compound 15, 4-[(5R,5aS,7R)-7-isopropenyl-5,5a-dimethyl-5,6,7,8-tetrahydro-4H-benzo[g][1,3]benzothiazol-2-yl]phenol], the “Growth Percent” value (SK-MEL-2) is reported as 104.08%, the “Growth Percent” value (A549/ATCC) is reported as 95.55% and the “Growth Percent” value (SNB-75) is reported as 87.74%. For the same molecule, the “Growth Percent” value (PC-3) was 94.38%, the “Growth Percent” value (HCT-15) was 100.28% and the “Growth Percent” value (KM12) was 103.49%. The “Growth Percent” value (U251) was 102.73%, the “Growth Percent” value (SK-MEL-28) was 106.43% and the “Growth Percent” value (CAKI-1) was 99.88%. For the same molecule, the “Growth Percent” value (UACC-257) was 100.07%, the “Growth Percent” value (UO-31) was 88.19% and the “Growth Percent” value (SK-MEL-5) was 99.11%. The “Growth Percent” value (OVCAR-8) was 98.85%, the MIC (S. aureus strains) was 6.25 mg/L (≈ 17.8 µM) and the “Growth Percent” value (A498) was 107.24%. For the same molecule, the “Growth Percent” value (IGROV1) was 102.22%, the “Growth Percent” value (M14) was 98.96% and the “Growth Percent” value (NCI-H522) was 92.28%. For the same molecule, the MIC [1] was 12.5 mg/L (≈ 35.6 µM), the MIC [2] was 6.25 mg/L (≈ 17.8 µM) and the “Antimicrobial activity (MIC) Em21” value ([3]; Enterococcus faecium ATCC 700221) was 3.12 mg/L. For the same molecule, the MIC ([3]; Enterococcus faecium, ATCC700221, Enterococcus faecium ATCC 700221, read-out: Antimicrobial activity (MIC) Em21) was 3.12 mg/L (≈ 8.89 µM), the MIC [4] was 12.5 mg/L (≈ 35.6 µM) and the MIC [5] was 6.25 mg/L (≈ 17.8 µM). It also gave an MIC [6] of 12.5 mg/L (≈ 35.6 µM), an MIC [7] of 6.25 mg/L (≈ 17.8 µM) and an MIC [8] of 6.2 mg/L (≈ 17.6 µM). The “Growth Percent” value (SK-OV-3) was 109.13%, the “Growth Percent” value (HCT-116) was 114.01% and the “Growth Percent” value (BT-549) was 115.53%. The “Growth Percent” value (SR) was 113.66%, the “Growth Percent” value (SF-268) was 100.98% and the “Growth Percent” value (HOP-62) was 95.96%. The “Growth Percent” value (OVCAR-5) was 106.63% and the “Growth Percent” value (MOLT-4) was 105.32%.
